Patent publication US20100240069A1, “Drug Discovery Assay for Modulators of HIF-Prolyl Hydroxylase Activity” (Boehringer Ingelheim International GmbH, priority 2009, published 2010)
Like-named read-outs stand apart in the source and are kept apart here.

Experiments:
[1] = tested on: recombinant rhesus HPH protein; test: Effect of additives on activity of recombinant rhesus HPH enzyme; type: biochemical, rhesus monkey (Macaca mulatta)
rhesus HPH2 = rhesus HPH2 (Macaca mulatta, UniProt I2CX88); test: biochemical
Protocol: (§1) More specifically, the HPH enzyme assay is conducted in a multi-well plate format. In a suitable buffer, a peptide substrate for the HPH, and a substrate for a protein-based pull down assay, and HPH enzyme are incubated for a period of time and at a temperature sufficient to allow the hydroxylation of the proline-containing substrate to occur. After the incubation period (e.g., 45 min.) the reaction is quenched by the addition of a solution containing the detection reagents. In specific embodiments, the solution comprises EDTA (2.5 mM) and the detection reagents (GST-VBC, Streptavidin-allophycocyanin and Europium-labeled anti-GST Antibody). The detection method in this assay is time-resolved fluorescent assay in which the time-resolved fluorescent signal (excitation at 330 nm; emission at 620 and 665 nm) is read on a plate reader after […] of incubation. The ratio of signal at 665 nm to 620 nm is used to calculate the amount of peptide interaction with GST-VBC as a measure of protein hydroxylation.
(§2) In an exemplary assay, the assay is conducted in a 96 or 384-well plate format. In the 384-well scale, the reaction (10 μl) contains buffer (20 mM MOPS (pH 6.5), 1.5 mM magnesium chloride, 5 mM potassium chloride, 0.1% bovine serum albumin, 1 mM TCEP, 10 μM ferrous ammonium sulfate, and 2 mM sodium ascorbate), substrate (2 μM α-ketoglutarate and 60 nM HIF-1αs peptide (biotin-[…]), enzyme (e.g. 8 nM of HPH3), and an inhibitor from a DMSO solution (1% DMSO final in the assay). After 45 min, the reaction is quenched by the addition of EDTA (2.5 mM) and the detection reagents (GST-VBC, Streptavidin-allophycocyanin and Europium-labeled anti-GST Antibody). The time-resolved fluorescent signal (excitation at 330 nm; emission at 620 and 665 nm) is read on a plate reader after 1 h of incubation. The ratio of signal at 665 nm to 620 nm is used to calculate the amount of peptide interaction with GST-VBC as a measure of protein hydroxylation.
(§3) In the assay, the biotinylated substrate is captured by the Streptavidin which is attached to allophycocyanin. The VBC interacts with the substrate and the interaction is recognized through the aid of an anti GST antibody which is labeled with europium. […] The time-resolved fluorescent signal (excitation at 330 nm; emission at 620 and 665 nm) is read on a plate reader after 1 h of incubation. The ratio of signal at 665 nm to 620 nm is used to calculate the amount of peptide interaction with GST-VBC as a measure of protein hydroxylation.
(§4) The VBC protein complex was generated by co-expression of Glutathione S-Transferase-VHL (von Hippel Lindau), elongin B and elongin C in Escherichia coli followed by purification of the complex using glutathione affinity resin and size-exclusion chromatography.

rhesus HPH1 = rhesus HPH1 (Macaca mulatta, UniProt H9FPE3, INS27EP); test: biochemical
Protocol: as §1, §2, §3, §4

rhesus HPH3 = biological target: T1, rhesus HPH3 (Macaca mulatta, UniProt H9FPE4); test: TR-FRET HPH enzyme assay (VBC recognition of hydroxylated peptide), HPH3; type: biochemical, rhesus monkey (Macaca mulatta); conditions: recombinant rhesus HPH3, inhibitory activity
T1 construct: fused on or other part: GST tag, N- or C-terminal, for purification
Protocol: More specifically, the HPH enzyme assay is conducted in a multi-well plate format. In a suitable buffer, a peptide substrate for the HPH, and a substrate for a protein-based pull down assay, and HPH enzyme are incubated for a period of time and at a temperature sufficient to allow the hydroxylation of the proline-containing substrate to occur. After the incubation period (e.g., 45 min.) the reaction is quenched by the addition of a solution containing the detection reagents. In specific embodiments, the solution comprises EDTA (2.5 mM) and the detection reagents (GST-VBC, Streptavidin-allophycocyanin and Europium-labeled anti-GST Antibody). The detection method in this assay is time-resolved fluorescent assay in which the time-resolved fluorescent signal (excitation at 330 nm; emission at 620 and 665 nm) is read on a plate reader after 1 of incubation. The ratio of signal at 665 nm to 620 nm is used to calculate the amount of peptide interaction with GST-VBC as a measure of protein hydroxylation.
In an exemplary assay, the assay is conducted in a 96 or 384-well plate format. […]
In the assay, the biotinylated substrate is captured by the Streptavidin which is attached to allophycocyanin. […] The time-resolved fluorescent signal (excitation at 330 nm; emission at 620 and 665 nm) is read on a plate reader after 1 h of incubation. […]

Chain of rhesus HPH1 (H9FPE3 1-405, stated change not applied): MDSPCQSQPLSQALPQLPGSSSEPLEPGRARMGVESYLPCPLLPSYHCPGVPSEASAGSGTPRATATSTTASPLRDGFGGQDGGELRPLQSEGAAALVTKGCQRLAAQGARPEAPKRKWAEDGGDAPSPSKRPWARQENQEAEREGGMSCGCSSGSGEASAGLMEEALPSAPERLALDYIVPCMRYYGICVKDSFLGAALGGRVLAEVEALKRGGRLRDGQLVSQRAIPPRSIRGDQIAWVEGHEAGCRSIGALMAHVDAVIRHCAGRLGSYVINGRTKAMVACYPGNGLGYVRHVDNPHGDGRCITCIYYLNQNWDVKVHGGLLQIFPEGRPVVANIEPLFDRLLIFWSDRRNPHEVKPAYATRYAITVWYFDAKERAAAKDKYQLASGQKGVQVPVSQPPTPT
Chain of rhesus HPH2 (I2CX88 1-426): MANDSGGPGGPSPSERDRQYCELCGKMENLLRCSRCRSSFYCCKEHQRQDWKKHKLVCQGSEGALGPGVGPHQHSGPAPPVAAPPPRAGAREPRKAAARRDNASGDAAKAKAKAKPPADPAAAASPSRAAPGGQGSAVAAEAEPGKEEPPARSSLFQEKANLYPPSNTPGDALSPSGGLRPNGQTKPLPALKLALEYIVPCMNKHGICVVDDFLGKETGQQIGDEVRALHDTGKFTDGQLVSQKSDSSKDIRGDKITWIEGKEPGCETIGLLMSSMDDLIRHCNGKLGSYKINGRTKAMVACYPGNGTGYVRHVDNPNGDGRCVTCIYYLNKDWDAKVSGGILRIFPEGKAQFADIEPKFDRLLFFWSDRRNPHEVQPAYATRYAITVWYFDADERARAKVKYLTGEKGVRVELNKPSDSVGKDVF

[Cl-].[Cl-].[Co+2] [CoCl2]
effect on enzyme activity [1]: inhibited enzyme activity

NNc1nncc2ccccc12 [Hydralazine]
IC50 (rhesus HPH2): 320 µM | IC50 (rhesus HPH1): 400 µM

O=C(O)CCC(=O)O [Succinate]
IC50 (rhesus HPH2; read-out: IC50 HPH2, recombinant rhesus HPH2, inhibitory activity): 380 µM | IC50 (rhesus HPH1; read-out: IC50 HPH1, recombinant rhesus HPH1, inhibitory activity): 200 µM | IC50 (rhesus HPH3): 80 µM

[Fe+2] [ferrous iron]
effect on enzyme activity ([1]; addition to recombinant rhesus HPH enzyme, isoform not stated): increased the activity of the enzyme
